According to the NIST ThermoML archive (doi:10.1021/acs.jced.7b00347):

Assay: mn = molality of the nth substance listed, in mol/kg
Conditions: for surface tension liquid-gas: Ring tensiometer; for electrical conductivity: 100 kPa, Liquid, Alternating current cell with electrodes

CCCCCCCCC[NH+](CCO)CC(C)O.[Cl-] (stereo unspecified) + O
Conditions	electrical conductivity [S/m]	surface tension liquid-gas [mN/m]
293.15 K, m1 = 1.77e-05	0.00044	–
293.15 K, m1 = 1.774e-05	–	61.16
293.15 K, m1 = 3.548e-05	–	54.59
293.15 K, m1 = 3.66e-05	0.000507	–
293.15 K, m1 = 5.55e-05	0.000574	–
293.15 K, m1 = 7.43e-05	0.000641	–
293.15 K, m1 = 8.87e-05	–	46.05
293.15 K, m1 = 9.32e-05	0.000709	–
293.15 K, m1 = 0.0001121	0.000776	–
293.15 K, m1 = 0.0001309	0.000843	–
293.15 K, m1 = 0.0001498	0.00091	–
293.15 K, m1 = 0.0001687	0.000977	–
293.15 K, m1 = 0.0001774	–	39.04
293.15 K, m1 = 0.0001875	0.00104	–
293.15 K, m1 = 0.0002064	0.00111	–
293.15 K, m1 = 0.0002253	0.00118	–
293.15 K, m1 = 0.0002441	0.00125	–
293.15 K, m1 = 0.000263	0.00131	–
293.15 K, m1 = 0.0002661	–	35.47
293.15 K, m1 = 0.0002819	0.00138	–
293.15 K, m1 = 0.0003008	0.00145	–
293.15 K, m1 = 0.0003196	0.00152	–
293.15 K, m1 = 0.0003385	0.00158	–
293.15 K, m1 = 0.0003548	–	33.14
293.15 K, m1 = 0.0003574	0.00165	–
293.15 K, m1 = 0.0003762	0.00172	–
293.15 K, m1 = 0.0003951	0.00178	–
293.15 K, m1 = 0.000414	0.00185	–
293.15 K, m1 = 0.0004257	–	31.39
293.15 K, m1 = 0.0004328	0.00192	–
293.15 K, m1 = 0.0004555	0.00197	–
293.15 K, m1 = 0.0004782	0.00202	–
293.15 K, m1 = 0.0005009	0.00207	–
293.15 K, m1 = 0.0005236	0.00212	–
293.15 K, m1 = 0.0005464	0.00217	–
293.15 K, m1 = 0.0005691	0.00222	–
293.15 K, m1 = 0.0005918	0.00227	–
293.15 K, m1 = 0.0006145	0.00232	–
293.15 K, m1 = 0.0006372	0.00236	–
293.15 K, m1 = 0.0006599	0.00242	–
293.15 K, m1 = 0.0006826	0.00246	–
293.15 K, m1 = 0.0007053	0.00251	–
293.15 K, m1 = 0.000728	0.00256	–
293.15 K, m1 = 0.0007507	0.00261	–
293.15 K, m1 = 0.0007734	0.00266	–
293.15 K, m1 = 0.0007961	0.00271	–
293.15 K, m1 = 0.0008188	0.00276	–
293.15 K, m1 = 0.0008415	0.00281	–
293.15 K, m1 = 0.0008642	0.00286	–
293.15 K, m1 = 0.0008869	0.00291	–
293.15 K, m1 = 0.000887	–	30.48
293.15 K, m1 = 0.001774	–	29.73
293.15 K, m1 = 0.002661	–	29.56
293.15 K, m1 = 0.003547	–	29.48
298.15 K, m1 = 1.77e-05	0.00054	–
298.15 K, m1 = 1.774e-05	–	56.05
298.15 K, m1 = 3.548e-05	–	49.71
298.15 K, m1 = 4.07e-05	0.000642	–
298.15 K, m1 = 6.36e-05	0.000745	–
298.15 K, m1 = 8.66e-05	0.000848	–
298.15 K, m1 = 8.87e-05	–	41.62
298.15 K, m1 = 0.0001095	0.00095	–
298.15 K, m1 = 0.0001324	0.00105	–
298.15 K, m1 = 0.0001554	0.00115	–
298.15 K, m1 = 0.0001774	–	35.73
298.15 K, m1 = 0.0001783	0.00126	–
298.15 K, m1 = 0.0002013	0.00136	–
298.15 K, m1 = 0.0002242	0.00146	–
298.15 K, m1 = 0.0002472	0.00156	–
298.15 K, m1 = 0.0002661	–	32.44
298.15 K, m1 = 0.0002701	0.00167	–
298.15 K, m1 = 0.000293	0.00177	–
298.15 K, m1 = 0.000316	0.00187	–
298.15 K, m1 = 0.0003389	0.00198	–
298.15 K, m1 = 0.0003619	0.00208	30.45
298.15 K, m1 = 0.0003881	0.00215	–
298.15 K, m1 = 0.0004144	0.00222	–
298.15 K, m1 = 0.0004406	0.00229	–
298.15 K, m1 = 0.0004669	0.00237	–
298.15 K, m1 = 0.0004931	0.00244	–
298.15 K, m1 = 0.0005194	0.00251	–
298.15 K, m1 = 0.0005456	0.00258	–
298.15 K, m1 = 0.0005719	0.00265	–
298.15 K, m1 = 0.0005981	0.00273	–
298.15 K, m1 = 0.0006244	0.0028	–
298.15 K, m1 = 0.0006507	0.00287	–
298.15 K, m1 = 0.0006769	0.00294	–
298.15 K, m1 = 0.0007032	0.00301	–
298.15 K, m1 = 0.0007294	0.00309	–
298.15 K, m1 = 0.0007557	0.00316	–
298.15 K, m1 = 0.0007819	0.00323	–
298.15 K, m1 = 0.0008082	0.0033	–
298.15 K, m1 = 0.0008344	0.00337	–
298.15 K, m1 = 0.0008607	0.00345	–
298.15 K, m1 = 0.0008869	0.00352	–
298.15 K, m1 = 0.000887	–	29.41
298.15 K, m1 = 0.001774	–	28.9
298.15 K, m1 = 0.002661	–	28.56
298.15 K, m1 = 0.003547	–	28.41
303.15 K, m1 = 1.77e-05	0.00064	–
303.15 K, m1 = 1.774e-05	–	51.35
303.15 K, m1 = 3.548e-05	–	46.22
303.15 K, m1 = 3.66e-05	0.000736	–
303.15 K, m1 = 5.54e-05	0.000832	–
303.15 K, m1 = 7.43e-05	0.000928	–
303.15 K, m1 = 8.87e-05	–	38.79
303.15 K, m1 = 9.31e-05	0.00102	–
303.15 K, m1 = 0.000112	0.00112	–
303.15 K, m1 = 0.0001308	0.00122	–
303.15 K, m1 = 0.0001497	0.00131	–
303.15 K, m1 = 0.0001685	0.00141	–
303.15 K, m1 = 0.0001774	–	33.47
303.15 K, m1 = 0.0001874	0.00151	–
303.15 K, m1 = 0.0002062	0.0016	–
303.15 K, m1 = 0.0002251	0.0017	–
303.15 K, m1 = 0.0002439	0.00179	–
303.15 K, m1 = 0.0002628	0.00189	–
303.15 K, m1 = 0.0002661	–	30.23
303.15 K, m1 = 0.0002816	0.00199	–
303.15 K, m1 = 0.0003004	0.00208	–
303.15 K, m1 = 0.0003193	0.00218	–
303.15 K, m1 = 0.0003229	–	29.48
303.15 K, m1 = 0.0003451	0.00227	–
303.15 K, m1 = 0.0003548	–	29.41
303.15 K, m1 = 0.0003709	0.00236	–
303.15 K, m1 = 0.0003967	0.00245	–
303.15 K, m1 = 0.0004225	0.00254	–
303.15 K, m1 = 0.0004483	0.00263	–
303.15 K, m1 = 0.0004741	0.00272	–
303.15 K, m1 = 0.0004999	0.00281	–
303.15 K, m1 = 0.0005257	0.00291	–
303.15 K, m1 = 0.0005515	0.003	–
303.15 K, m1 = 0.0005773	0.00309	–
303.15 K, m1 = 0.0006031	0.00318	–
303.15 K, m1 = 0.0006289	0.00327	–
303.15 K, m1 = 0.0006547	0.00336	–
303.15 K, m1 = 0.0006805	0.00345	–
303.15 K, m1 = 0.0007063	0.00354	–
303.15 K, m1 = 0.0007321	0.00363	–
303.15 K, m1 = 0.0007579	0.00372	–
303.15 K, m1 = 0.0007837	0.00381	–
303.15 K, m1 = 0.0008095	0.00391	–
303.15 K, m1 = 0.0008353	0.004	–
303.15 K, m1 = 0.0008611	0.00409	–
303.15 K, m1 = 0.0008869	0.00418	–
303.15 K, m1 = 0.000887	–	28.48
303.15 K, m1 = 0.001774	–	28.01
303.15 K, m1 = 0.002661	–	27.82
303.15 K, m1 = 0.003547	–	27.65
308.15 K, m1 = 8.869e-06	–	52.23
308.15 K, m1 = 1.77e-05	0.00074	–
308.15 K, m1 = 1.774e-05	–	47.19
308.15 K, m1 = 3.42e-05	0.000841	–
308.15 K, m1 = 3.548e-05	–	42.29
308.15 K, m1 = 5.07e-05	0.000941	–
308.15 K, m1 = 6.72e-05	0.00104	–
308.15 K, m1 = 8.36e-05	0.00114	–
308.15 K, m1 = 8.87e-05	–	35.88
308.15 K, m1 = 0.0001001	0.00124	–
308.15 K, m1 = 0.0001166	0.00134	–
308.15 K, m1 = 0.000133	0.00144	–
308.15 K, m1 = 0.0001495	0.00154	–
308.15 K, m1 = 0.000166	0.00165	–
308.15 K, m1 = 0.0001774	–	30.89
308.15 K, m1 = 0.0001825	0.00175	–
308.15 K, m1 = 0.0001989	0.00185	–
308.15 K, m1 = 0.0002154	0.00195	–
308.15 K, m1 = 0.0002319	0.00205	–
308.15 K, m1 = 0.0002483	0.00215	28.73
308.15 K, m1 = 0.0002732	–	28.57
308.15 K, m1 = 0.0002803	0.00229	–
308.15 K, m1 = 0.0003122	0.00243	–
308.15 K, m1 = 0.0003441	0.00257	–
308.15 K, m1 = 0.0003548	–	28.44
308.15 K, m1 = 0.0003761	0.00271	–
308.15 K, m1 = 0.000408	0.00285	–
308.15 K, m1 = 0.0004399	0.00299	–
308.15 K, m1 = 0.0004718	0.00313	–
308.15 K, m1 = 0.0005038	0.00327	–
308.15 K, m1 = 0.0005357	0.00341	–
308.15 K, m1 = 0.0005676	0.00356	–
308.15 K, m1 = 0.0005996	0.00369	–
308.15 K, m1 = 0.0006315	0.00384	–
308.15 K, m1 = 0.0006634	0.00398	–
308.15 K, m1 = 0.0006954	0.00412	–
308.15 K, m1 = 0.0007273	0.00426	–
308.15 K, m1 = 0.0007592	0.0044	–
308.15 K, m1 = 0.0007911	0.00454	–
308.15 K, m1 = 0.0008231	0.00468	–
308.15 K, m1 = 0.000855	0.00482	–
308.15 K, m1 = 0.0008869	0.00496	–
308.15 K, m1 = 0.000887	–	27.73
308.15 K, m1 = 0.001774	–	27.41
308.15 K, m1 = 0.002661	–	27.23
